Patent US20210087525A1, “COST EFFECTIVE CULTURE MEDIA AND PROTOCOL FOR HUMAN INDUCED PLURIPOTENT STEM CELLS” (NORTHWESTERN UNIVERSITY, priority 2019, published 2021)

Columns and labels:
[1] = system: hiPSC; test: weekend-free media change / passaging schedule growth; format: cell-based, human; details: various doses, FIG. 8E
Experimental: FIG. 8A-H. Optimization of Weekend-Free Passaging Schedule that is Still Compatible with Monolayer Differentiation. (A) Establishment of an optimal 4-day media change schedule. (B) 7 day passage with media change schedule. (C) 7 day passage only schedule. (D) Comparison of growth when using two 7-day weekend-free passaging schedules with or without addition of 0.5 mg ml−1 albumin (n=2). (E) Comparison the addition of varying levels of albumin (mg ml−1) to a 7-day passage and media change schedule (n=4). (F) Cardiac differentiation efficiency when using 7-day passage and media change schedule (n=5). (G) Endothelial differentiation efficiency when using 7-day passage and media change schedule (n=6). (H) […]
With the understanding that B8 supports hiPSC growth across a variety of sub-optimal conditions (FIG. 7D), we established the suitability of this formula to skip days of media change. […] With the knowledge of the influence of various media change-skipping timelines, we devised a 7-day schedule consisting of passaging cells every 3.5 days that would allow for the skipping of media changes on the weekends, a major caveat of current hiPSC culture protocols (FIGS. 8B and 8C). […]

[2] = system: phospho-ERK; test: stimulation of phospho-ERK in FGF2-starved hiPSC by media stored at 37° C. (Western blot); format: cell-based, human; details: FIG. 7E
Experimental: FIG. 7A-E. Qualification of B8 as Suitable for hiPSC Generation and Culture. […] (B) Expression of pluripotent markers in a variety of B8-derived hiPSC lines. (C) Example G-banding karyotype analysis of four hiPSC lines derived in B8 from blood. (D) hiPSC growth at low seeding densities in B8 compared to E8 (n=8). (E) Assessment of stimulation of phospho-ERK after media had been stored at 37° C. for 2 or 7 days, comparing in-house generated FGF2-G3 to a commercial FGF2 (Peprotech). hiPSC were starved of FGF2 for 24 h then treated with the indicated media for 1 h before collection for Western blot. Total ERK was used as a loading control.
Stock lysis buffer was prepared as 150 mM NaCl, 20 mM Tris pH 7.5, 1 mM EDTA, 1 mM EGTA, and 1% Triton X-100 and stored at 4° C. Fresh complete lysis buffer was prepared with final concentration of 1× Protease Inhibitor (Roche, 5892791001), 1× Phosphatase Inhibitor Cocktail 2 (P5726, Sigma), 1× Phosphatase Inhibitor Cocktail 3 (Sigma, P0044), 2 mM PMSF (Sigma, P7626), and 1% SDS Solution (Fisher Scientific, BP2436200). hiPSC were starved using B8 without FGF2 for 24 hours, then treated with media containing the corresponding FGF2 for 1 h. Media was then removed, and cells were washed once with DPBS, harvested with 0.5 mM EDTA in DPBS, and transferred into tubes. Samples were pelleted by centrifugation at 500×g for 3 minutes and the supernatant was discarded. The pellet was resuspend in 150 μl complete lysis buffer and incubated on ice for 30 min. Clear lysates were collected by centrifugation at 10,000×g for 10 min at 4° C. The protein concentration was measured with Qubit Protein Assay Kit (Invitrogen, Q33211) and Qubit 4 fluorometer. Lysates was stored in −80° C. before use. 10 μg of sample was prepared with NuPAGE™ LDS Sample Buffer (Invitrogen, B0007) and NuPAGE™ Reducing Agent (Invitrogen, B0009) according to the manufacturer's instructions and run on NuPAGE™ 10% Bis-Tris Gel (Invitrogen, NP0302BOX) and Mini Gel Tank system (Invitrogen, A25977) with Bolt MES SDS Running Buffer (Invitrogen, B000202) at 100 V for 1 h. […]

effect of component on stability of FGF2-G3 [2]: improved the stability of FGF2-G3
Substance: heparin
additive effect in B8 [1]: do not have an additive effect
